Patent US11883404B2, “Preparation and composition for treatment of malignant tumors” (TAIHO PHARMACEUTICAL CO., LTD., priority 2016, dated 2024)
Counter-ions that a name gives are not always drawn. Like-named read-outs stand apart in the source and are kept apart here.

Key:
[1] = system: human endometrial cancer line AN3CA; experiment: Apoptosis induction, CellEvent Caspase-3/7 Green Detection, Compound 1 and MK2206 (Example 9); assay type: cell-based; conditions: Compound 1 10 nM, MK2206 dihydrochloride 300 nM (free form), 24 hours
Method: (§1) The presence or absence of induction of apoptosis by concomitant use was observed using CellEvent™ Caspase-3/7 Green Detection Reagent (Invitrogen Corp.). […] The concentration of MK2206 dihydrochloride was set to 300 nM (in terms of a free form). These medicines used alone (DMSO was added as a control) or concomitantly were comparatively studied. […] Apoptosis was detected by adding 1 μL of CellEvent™ Caspase-3/7 Green Detection Reagent (Invitrogen Corp.) solution per well to the cells, incubating the cells at 37° C. for 30 minutes, and then measuring cell images in the bright field and fluorescence signals, under a fluorescence microscope. The observed fluorescence signals indicate the induction of Caspase 3/7, and the amplitude of the signals represents the presence or absence of induction of apoptosis-like cell death.

[2] = system: phosphorylated AKT; experiment: Western blot, intracellular phosphorylation of AKT in AN3CA (Example 11); assay type: cell-based, human; conditions: Compound 1 10 and 100 nM, MK2206 dihydrochloride 5 μM
Method: The intracellular phosphorylation levels of ERK, AKT, mTOR and S6 were detected by Western blot method. […] Likewise, MK2206 dihydrochloride was added at a final concentration of 5 μM (in terms of a free form), and everolimus was added at a final concentration of 3 nM. Each medicine alone and each combination were studied. DMSO was added as a control at a final concentration of 0.2%. […] The amounts of phosphorylated AKT, phosphorylated ERK, phosphorylated mTOR, phosphorylated S6 and GAPDH were detected using Western blot according to an ordinary method.

[3] = system: human gastric cancer line SNU-16; assay type: in vivo; conditions: alone
Method: The day at which the grouping was carried out was defined as Day 0. TV (mm^3)=(Major axis×Minor axis^2)/2(units for the major axis and the minor axis were mm).
(§2) RTV was calculated according to the expression given below from TV values on the day of measurement and on the day of grouping. […] RTV=(TV on the day of measurement)/(TV on the day of grouping) T/C (%)=(Average RTV in each medicine administration group on the day of assessment)/(Average RTV in the control group on the day of assessment)×100

[4] = system: human endometrial cancer line AN3CA; experiment: Antitumor effect of Compound 1 and gemcitabine on subcutaneously implanted AN3CA tumor in nude mouse (Example 4); assay type: in vivo, BALB/cAJcl-nu/nu mice; conditions: Day 15
Method: Gemcitabine was administered at 100 mg/kg/day from the tail vein at Day 1 and Day 8.

[5] = system: human endometrial cancer line AN3CA; experiment: Antitumor effect of Compound 1 and Compound 2 on subcutaneously implanted AN3CA tumor in nude mouse (Example 16); assay type: in vivo, BALB/cAJcl-nu/nu mice; conditions: alone, Day 15
Method: The day at which the grouping was carried out was defined as Day 0. TV(mm^3)=(Major axis×Minor axis^2)/2(units for the major axis and the minor axis were mm).
The dose of Compound 2 was set in consideration of well tolerated dose for nude mice, etc.
as §2

[6] = system: human endometrial cancer line AN3CA; conditions: for T/C (%): Day 11
[7] = system: human endometrial cancer line AN3CA; conditions: alone, Day 15
Method: An engrafted tumor was removed from the mice, chopped into fragments of 2 mm square, and then subcutaneously implanted to 6-week-old female BALB/cAJcl-nu/nu mice.
Everolimus was orally administered each day at 2 mg/kg/day for 14 days.

[8] = system: human gastric cancer line SNU-16; experiment: Antitumor effect of Compound 1 and paclitaxel on subcutaneously implanted SNU-16 tumor in nude mouse (Example 2); conditions: for T/C (%): Day 15
[9] = system: phosphorylated mTOR; experiment: Western blot, intracellular phosphorylation of mTOR in AN3CA (Example 11); assay type: cell-based, human; conditions: everolimus 3 nM alone
Method: The intracellular phosphorylation levels of ERK, AKT, mTOR and S6 were detected by Western blot method. […] Likewise, MK2206 dihydrochloride was added at a final concentration of 5 μM (in terms of a free form), and everolimus was added at a final concentration of 3 nM. Each medicine alone and each combination were studied. DMSO was added as a control at a final concentration of 0.2%.
Then, cell lysates were prepared using RIPA Buffer [composition: 50 mM Tris-HCl (pH 8.0), 150 mM NaCl, 5 mM EDTA, 1% (w/w) Nonidet P-40, 0.1% (w/w) sodium deoxycholate, and 0.1% (w/w) SDS]. The amounts of phosphorylated AKT, phosphorylated ERK, phosphorylated mTOR, phosphorylated S6 and GAPDH were detected using Western blot according to an ordinary method.

[10] = system: Human lung cancer line HCC4006; conditions: 100 ng/mL FGF7, 72 hours
Method: (§3) Cell survival rates were measured using CellTiter-Glo. The cells were recovered by an ordinary method, suspended in the above medium containing 10% fetal bovine serum, and seeded in a 96-well plate. The number of cells seeded per well was set to 2000 cells/70 μL. […] In order to study effects on the activated FGF/FGFR pathway in the cells, a ligand FGF2 or FGF7 was added to the cells and compared with non-addition. […] DMSO was added to a control well, and 10 ng/mL FGF2 or 100 ng/mL FGF7 was added to the medium.
(§4) The cells were incubated at 37° C. for 72 hours under 5% CO2. Then, 100 μL of CellTiter-Glo solution was added to each well, and the cells were incubated at room temperature for 10 minutes, followed by the measurement of chemiluminescence intensity using a plate reader (ARVO). Growth inhibitory effects relative to the vehicle group were calculated from the obtained data.

[11] = system: Human lung cancer line NCI-H1650; conditions: 100 ng/mL FGF7, 72 hours
Method: as §3, §4

[12] = system: human endometrial cancer line AN3CA; experiment: Apoptosis induction, CellEvent Caspase-3/7 Green Detection, Compound 1 and Compound 2 (Example 14); assay type: cell-based; conditions: Compound 1 100 nM, Compound 2 100 nM, 24 hours
Method: as §1, with “Compound 2” for “MK2206 dihydrochloride”, “100 nM.” for “300 nM (in terms of a free form).”, “6” for “1”

[13] = system: human small cell lung cancer cell line DMS 114; experiment: Cell survival rate assay (CellTiter-Glo 2.0), IC50 and combination index of Compound 1 and Compound 2 (Example 15); assay type: cell-based; conditions: each medicine alone, 72 hours
Method: A human small cell lung cancer cell line DMS 114 was cultured using a Waymouth's medium containing 10% fetal bovine serum. The cells were maintained at 37° C. under 5% CO2 and subcultured at a ratio of 1:5 to 1:20 by 1 to 2 passages per week.
Cell survival rate was measured using CellTiter-Glo 2.0 (produced by Promega Corp.). The cells were collected by an ordinary method, then suspended in a Waymouth's medium containing 10% fetal bovine serum, and seeded in a 96-well plate. The number of cells seeded per well was set to 2000 cells/50 μL. […] In addition to groups of each medicine alone, groups of both the medicines simultaneously added were prepared in parallel. […] Cell survival rates were calculated by adding 50 μL of CellTiter-Glo 2.0 solution to each well, incubating the cells at room temperature for 15 minutes, and then measuring the chemiluminescence intensity of each well using a plate reader (FlexStation 3). The cell survival rates in medicine addition were calculated as a ratio vs. the control group (100%) according to the following equation: Cell survival rate (%)=(Chemiluminescence intensity at the time of medicine addition)/(Chemiluminescence intensity of the control group)×100
Also, Fa (fraction of affect) values were calculated by subtracting a 1/100 value of the cell survival rate from 1. […]

[14] = Compound 1 15 mg/kg/day orally once a day for 14 days, alone

**Q.** NC1(c2ccc(-c3nc4ccn5c(=O)[nH]nc5c4cc3-c3ccccc3)cc2)CCC1 [MK2206 dihydrochloride, 8-[4-(1-aminocyclobutyl)phenyl]-9-phenyl-1,2,4-triazolo[3,4-f][1,6]naphthyridin-3(2H)-one] was tested. Which “induction of cell death (Caspase 3/7 fluorescence signals)” value [1] did it give?
**A.** hardly found

**Q.** And the AKT phosphorylation [2]?
**A.** inhibited

**Q.** With C=CC(=O)N1CC[C@H](n2nc(C#Cc3cc(OC)cc(OC)c3)c3c(N)ncnc32)C1 [Compound 1, (S)-1-(3-(4-Amino-3-((3,5-dimethoxyphenyl)ethynyl)-1H-pyrazolo[3,4-d]pyrimidin-1-yl)pyrrolidin-1-yl)prop-2-en-1-one] as the compound, how does the “T/C (%)” value ([3]; Compound 1 5 mg/kg/day orally once a day for 14 days, day of assessment (Day 15)) read?
**A.** 83.6%

**Q.** And the “T/C (%)” value ([3]; Compound 1 15 mg/kg/day orally once a day for 14 days, Day 15)?
**A.** 69.0%

**Q.** And the “T/C (%)” value ([4]; Compound 1 15 mg/kg/day orally each day for 14 days, alone)?
**A.** 42.1%

**Q.** And the “T/C (%)” value ([5]; Compound 1 15 mg/kg/day orally once a day for 14 days)?
**A.** 22.1%

**Q.** What about the “T/C (%)” value [6, 14] of the same compound?
**A.** 46.0%

**Q.** What about the “T/C (%)” value ([7]; Compound 1 15 mg/kg/day orally each day for 14 days) of the same compound?
**A.** 33.3%

**Q.** And the “T/C (%)” value ([7]; Compound 1 50 mg/kg/day orally each day for 14 days)?
**A.** 12.6%

**Q.** What about the “T/C (%)” value ([8]; Compound 1 5 mg/kg/day orally once a day for 14 days, alone) of the same compound?
**A.** 83.6%

**Q.** And the “T/C (%)” value [8, 14]?
**A.** 69.0%

**Q.** What does the source list for CO[C@H]1C[C@@H]2CC[C@@H](C)[C@@](O)(O2)C(=O)C(=O)N2CCCC[C@H]2C(=O)O[C@H]([C@H](C)C[C@@H]2CC[C@@H](OCCO)[C@H](OC)C2)CC(=O)[C@H](C)/C=C(\C)[C@@H](O)[C@@H](OC)C(=O)[C@H](C)C[C@H](C)/C=C/C=C/C=C/1C [everolimus, reference compound]?
**A.** mTOR phosphorylation [9]: inhibited; T/C (%) ([7]; everolimus 2 mg/kg/day orally each day for 14 days): 27.1%

**Q.** With CC(=O)O[C@H]1C(=O)[C@@]2(C)[C@H]([C@H](OC(=O)c3ccccc3)[C@]3(O)C[C@H](OC(=O)[C@H](O)[C@@H](NC(=O)c4ccccc4)c4ccccc4)C(C)=C1C3(C)C)[C@]1(OC(C)=O)CO[C@@H]1C[C@@H]2O [paclitaxel, reference compound] as the compound, how does the “body weight change of the mice” value ([8]; paclitaxel 60 mg/kg, concomitant use group vs each medicine group) read?
**A.** transient decrease in body weight

**Q.** And the “T/C (%)” value ([8]; paclitaxel single dose 60 mg/kg/day tail vein at Day 1, alone)?
**A.** 12.9%

**Q.** How did the “T/C (%)” value ([4]; gemcitabine 100 mg/kg/day tail vein at Day 1 and Day 8, alone) turn out when Nc1ccn([C@@H]2O[C@H](CO)[C@@H](O)C2(F)F)c(=O)n1 [gemcitabine, reference compound] was run?
**A.** 75.5%

**Q.** COc1cc2ncnc(Nc3ccc(F)c(Cl)c3)c2cc1OCCCN1CCOCC1 [gefitinib] was tested. Which “drug effect of gefitinib on addition of the FGFR ligand FGF7” value [10] did it give?
**A.** attenuated

**Q.** And the “drug effect of gefitinib on addition of the FGFR ligand FGF7” value [11]?
**A.** attenuated

**Q.** For N.N.[Cl][Pt][Cl] [cisplatin], which “T/C (%)” value ([6]; cisplatin 7 mg/kg/day tail vein at Day 1, alone) is on record?
**A.** 53.0%

**Q.** And the “body weight change of the mice” value ([6]; mouse, in vivo)?
**A.** transient decrease in body weight

**Q.** With CC1(O)CC(N)(c2ccc(-c3nc4n(c3-c3ccccc3)COc3ccncc3-4)cc2)C1 (stereo not drawn) [Compound 2, trans-3-amino-1-methyl-3-(4-(3-phenyl-5H-imidazo[1,2-c]pyrido[3,4-e][1,3]oxazin-2-yl)phenyl)cyclobutanol] as the compound, how does the “induction of cell death (Caspase 3/7 fluorescence signals)” value [12] read?
**A.** hardly found

**Q.** What about the IC50 [13] of the same compound?
**A.** 4.86 µM

**Q.** And the “T/C (%)” value ([5]; Compound 2 4 mg/kg/day orally once a day for 14 days)?
**A.** 58.6%

**Q.** What about the “T/C (%)” value ([5]; Compound 2 8 mg/kg/day orally once a day for 14 days) of the same compound?
**A.** 55.4%
